The test concerns P. falciparum 3D7 growth, pLDH absorbance. The experiment in a line: P. falciparum 3D7 growth inhibition, dose response, strain 3D7 (AID 2305).

For `CC(C)=C(C(=O)OCc1ccccc1)N1C(=O)[C@@H](NC(c2ccccc2)(c2ccccc2)c2ccccc2)[C@H]1[S@@](=O)CC(=O)OC(C)(C)C`, the IC50 was determined as 1020 nM.
In the case of `CCCCN1CCN(CC(O)CNC(=O)Nc2ccc(Cl)cc2)CC1` (centres undefined) it was 70 nM; in that of `Cc1cccc2[nH]c(-c3ccc(-c4cccc(CN5CCN(c6ccncc6)CC5)c4)cc3)nc12`, 120 nM.
Molecule `COc1ccc2nc3cc(Cl)ccc3c(NCCN3CCN(C)CC3)c2c1` returned an IC50 of 120 nM.
For `CC(C)CN(C)Cc1ccc(-c2ccc(-c3nc4ccccc4[nH]3)s2)cc1` the value was 750 nM; for `Cc1cccc2c(C3CCN(CC4CCC(NC(=O)/C=C/c5ccc(Cl)c(Cl)c5)CC4)CC3)c[nH]c12` (centres undefined), 1030 nM.
The molecule `CC(CNC(=O)[C@H]1CNCCN1C(=O)CCCc1ccccc1)c1ccccc1` (some centres undefined) gave a half-inhibitory concentration (IC50) of 920 nM.
Take `CN(c1ccccc1)c1ccnc(/N=C(\N)Nc2ccc(Cl)cc2)n1`: the 50% inhibitory concentration (IC50) worked out at 1090 nM.
In the case of `Cc1ccc(-c2nc(N3CCN(C(=O)c4ccco4)CC3)c3ccc(Cl)cc3n2)cc1`, the IC50 worked out at 1210 nM.
Molecule `CC1CN(Cc2ccc(C#N)cc2)CCN1c1ccc(NC(=O)c2cccs2)cc1` (centres undefined) came in with a 50% inhibitory concentration (IC50) of 810 nM.
`COc1ccc2ncc(Cl)c(CCN3C[C@H](CNCc4ccc5c(n4)NC(=O)CS5)[C@H](O)C3)c2n1` showed an IC50 of 1000 nM.
In the case of `CS(=O)(=O)Nc1ccc2[nH]cc(C3C[C@H]4CC[C@@H](C3)N4CC3CCC(NC(=O)/C=C/c4ccc(Cl)c(Cl)c4)CC3)c2c1` (some centres undefined), the IC50 was 870 nM. This IC50 and that of the molecule before are within 1.5-fold of each other.
Take `COc1ccc(CNCc2ccc(-c3cccc(-c4nc5ccccc5[nH]4)c3)cc2)cc1`: the 50% inhibitory concentration (IC50) came out at 210 nM.
`Oc1ccc2c(CNCCc3ccccc3)c(O)ccc2c1CNCCc1ccccc1`: the IC50 is 100 nM.
As to `O=C(Nc1ccc(F)cc1)c1nc2ccccc2nc1Cl`, the half-inhibitory concentration (IC50) is 1230 nM.
`CCN(CC)CCOc1ccc(Nc2ncc3cc(-c4c(Cl)cccc4Cl)c(=O)n(C)c3n2)cc1` displayed an IC50 of 1180 nM.
`COc1cccc(-c2nn(C)c3sc(C(=O)NCCN4CCN(c5ccccc5F)CC4)cc23)c1` had a 50% inhibitory concentration (IC50) of 950 nM. The IC50 values of the last two molecules are within 1.5-fold of each other.
For `COc1cc(C(=O)NC2CCc3ccccc32)cc(Cl)c1OC` (centres undefined) the value was 1100 nM; for `O=C(N1CCN(c2cccc(C(F)(F)F)c2)CC1)C(Cl)(Cl)Cl`, 890 nM.
In turn, `CC[C@H]1CN2CC[C@H]1C[C@H]2[C@H](O)c1cc(N2CCCC(CO)C2)nc2ccc(OC)cc12` (some centres undefined) registered an IC50 of 80 nM.
`NCc1cccc(-c2cccc(CNC3CCN(Cc4ccccc4)CC3)c2)c1` showed an IC50 of 720 nM. This IC50 lies about 9-fold higher than the previous one.
For `Nc1nccc2ccc(-c3ccnc(NCc4cccnc4)n3)cc12` the value was 460 nM; for `CCC(C)(C)c1ccc(OCCCC(=O)Nc2ccc(Cl)c([N+](=O)[O-])c2)c(C(C)(C)CC)c1`, 970 nM.
`O=C(Nc1cccc(CN2CCCN(Cc3ccc(F)cc3)CC2)c1)c1cc2ccccc2s1` had a concentration for half-maximal inhibition (IC50) of 790 nM.
With `FC(F)(F)c1ccc(CNCC2CCN(Cc3ccc4c(c3)OCO4)CC2)cc1`, the IC50 came to 1360 nM.
For `COc1cc2c(cc1OC)CC(NCc1ccc(-c3ccc4nc[nH]c4c3)cc1)C2` the value was 850 nM; for `CC1(C)N=C(N)N=C(N)N1c1cccc(I)c1`, 130 nM; for `CCCN(CCC)CCCCC(C)Nc1c2ccc(Cl)cc2nc2ccc(OC)cc12` (centres undefined), 140 nM.
For `OC(CNCc1cccc(Oc2ccc(Cl)cc2)c1)c1cccc(C(F)(F)F)c1` (centres undefined), the half-inhibitory concentration (IC50) worked out at 970 nM. This IC50 lies about 6.9-fold higher than the previous one.
For `Cc1cccc2[nH]c(-c3cccc(-c4cccc(CN5CCN(c6ccncc6)CC5)c4)c3)nc12` the value was 200 nM; for `CCCCCCOc1ccccc1C(=O)NCCOc1ccc(Cl)cc1`, 1210 nM.
For the molecule `CCN(CC)CCCN(CCCN(CC)CC)c1cc(C)nc(Nc2ccc(Cl)cc2)n1`, the concentration for half-maximal inhibition (IC50) is 210 nM.
In the case of `Cc1cc(OCCCN2CCC(NS(=O)(=O)c3cccc(Br)c3)C2)c2ccccc2n1` (centres undefined), the IC50 amounted to 1210 nM.
For the molecule `Cc1c(CN2CCCCC2)cccc1OCCCNc1nc(NCCc2ccc(O)cc2)nc(N2CCNCC2)n1`, the half-inhibitory concentration (IC50) was determined as 220 nM.
The molecule `CCCN1CCC=C(c2cccc(Nc3nccc(Nc4cc(OC)ccc4C)n3)c2)C1` showed an IC50 of 1040 nM.
The molecule `COCCNCc1cccc(-c2ccc3c(Nc4cc(O)c(Cl)cc4F)ccnc3c2)c1` gave an IC50 of 110 nM.
For the molecule `CCCCCC(C)C(C)c1cc(O)c2c(c1)OC(C)(C)CC2=Cc1ccncc1` (centres undefined), the IC50 stood at 210 nM.
For `CCOc1ccc(C(C)NC(=O)c2cc(Cl)ccc2OC)cc1OCC` (centres undefined) the value was 970 nM; for `COc1cc(Cc2cnc(N)nc2N)cc(OCCCC#N)c1OC`, 1030 nM.
Molecule `N#Cc1ccc2c(c1)CCN(CCC1CCC(NC(=O)Nc3cnc4ccccc4c3)CC1)C2` (centres undefined) gave a half-maximal inhibitory concentration (IC50) of 770 nM.
`COc1cc(C(=O)NC2CCN(Cc3ccccc3)CC2)ccc1-c1nc2cc(Cl)c(Cl)cc2[nH]1` came in with a 50% inhibitory concentration (IC50) of 520 nM.
`N#Cc1ccc(C(=O)NC2CCN(CCCCCNC(=O)/C=C/c3ccc(Cl)c(Cl)c3)CC2)cc1` showed an IC50 of 840 nM.
`O=C(Nc1ccc2c(c1)CCCN2S(=O)(=O)c1cccs1)c1cc([N+](=O)[O-])ccc1Cl` yielded an IC50 of 840 nM.
On to `CCc1cn2c3c(cc(C(=O)N[C@@H](Cc4cc(F)cc(F)c4)[C@H](O)CNC4CC4)cc13)N(C)S(=O)(=O)CC2`, for which the concentration for half-maximal inhibition (IC50) came to 120 nM.
`COc1ccc(CNC2CCN(C)CC2)cc1-c1ccc(S(=O)(=O)NCc2ccccc2)cc1` came in with a concentration for half-maximal inhibition (IC50) of 600 nM.
In the case of `O=C1COc2ccc3ccccc3c21` it was 700 nM; in that of `COc1c(C)[nH]c(C)c(-c2ccc(Oc3cccc(C(F)(F)F)c3)cc2)c1=O`, 310 nM; in that of `Cc1c(Cl)cccc1NC(=S)NN=Cc1ccccn1`, 600 nM.
In the case of `COc1ccc(CNC2Cc3ccccc3C2)cc1-c1cccc(S(=O)(=O)NCCN2CCCC2)c1`, the IC50 came to 760 nM.
`CCN(CC)S(=O)(=O)c1cc(-c2ccc(=O)n(CC(=O)c3ccc(C)cc3)n2)ccc1C` yielded an IC50 of 890 nM.
`NCc1ccc(-c2ccccc2CNC2CCN(Cc3ccccc3)CC2)cc1` returned an IC50 of 770 nM.
On to `Cc1cc(N[C@@H](Cc2ccccc2)C(=O)NCCc2ccccc2)nc(NCc2ccccc2C)n1`, for which the IC50 was determined as 880 nM. The IC50 values of the last two molecules are within 1.5-fold of each other.
`CNc1ccc(CNCc2ccc(-c3ccc(-c4nc5ccc(C(F)(F)F)cc5[nH]4)cc3)cc2)cc1` showed a half-inhibitory concentration (IC50) of 170 nM.
Regarding `CCNc1cc(C)nc(Nc2ccc(C)cc2)n1`, the IC50 worked out at 730 nM.
`COc1ccc(Nc2nccc(-c3ccc4ccnc(NCCCCN)c4c3)n2)cc1` had a half-inhibitory concentration (IC50) of 750 nM.
In the case of `Cn1cncc1C(=O)NC1CCN(c2ccnc(Nc3ccc(F)cc3)n2)C1` (centres undefined), the IC50 worked out at 830 nM.
In the case of `Cc1cc(Br)cnc1CCCCN=C1NC(=O)CN1C` it was 370 nM; in that of `O=C(c1cc2cccc([N+](=O)[O-])c2[nH]1)N1CCC(CCN2CCC(c3c[nH]c4ccccc34)CC2)CC1`, 940 nM; in that of `O=[N+]([O-])c1ccc(NC(=NCCOc2ccccc2)Nc2ccccc2Br)c(O)c1`, 1050 nM.
Molecule `CN(C)c1ccc(CN2CCC(NC(=O)c3ccc(-c4cccc(F)c4)s3)CC2)cc1` yielded a concentration for half-maximal inhibition (IC50) of 1490 nM. The IC50 values of the last two molecules are within 1.5-fold of each other.
For `CC(C)Oc1ccccc1-c1csc(C(=O)NCC2CCN(Cc3ccc(C(C)(C)C)cc3)C2)c1` (centres undefined) the value was 1070 nM; for `CN(C)CCOc1cc(NC(=O)Nc2ccc(Oc3ccccc3)cc2)ccc1I`, 890 nM; for `CCNc1cc(C(=O)N[C@@H](Cc2ccccc2)[C@H](O)CNCc2cc(C#N)ccc2OC)cc(N2CCCC2=O)c1`, 1230 nM.
Take `CCn1c(SC)nnc1C1CCCN(CC(=O)Nc2nc3ccc(OC)cc3s2)C1` (centres undefined): the IC50 came out at 750 nM.
In the case of `Cc1cccc2[nH]c(-c3ccc(-c4cccc(CN5CCCC5CN)c4)s3)nc12` (centres undefined) it was 870 nM.
As for `COC(=O)c1ccc2nc(-c3ccc(C(=O)NCc4ccc(Cl)c(Cl)c4)cc3)[nH]c2c1`, the half-inhibitory concentration (IC50) was 850 nM. This IC50 and that of the molecule before are within 1.5-fold of each other.
In the case of `O=C(/C=C/c1ccc(Cl)c(Cl)c1)N1CCC(CN2CCC(Cc3c[nH]c4ccccc34)CC2)CC1` it was 670 nM; in that of `CC1CN(S(=O)(=O)c2ccc(NC(=O)c3cc(-c4ccccc4O)n[nH]3)cc2)CC(C)O1` (centres undefined), 830 nM; in that of `N#Cc1ccc(-c2ccc(C(=O)Nc3ccc4c(c3)CCN(C3CCC3)CC4)nc2)cn1`, 1160 nM.
In the case of `COc1ccc(-c2ccc(NC(=O)c3ccc(Cl)cc3)cc2)cc1CN(C)CCO` it was 810 nM; in that of `Cc1ccccc1C1CCN(C2CCC(NC(=O)c3ccc4c(c3)-c3nocc3C(C)O4)CC2)CC1` (centres undefined), 1270 nM; in that of `CCN(CC)CCCNC(=O)/C(=C/C=C/c1cc2cc(Cl)c(Cl)cc2[nH]1)OC`, 1160 nM.
For the molecule `COc1ccc2c(NN=Cc3ccccc3Cl)ccnc2c1`, the IC50 came to 620 nM.
As to `CCC(C)CN1CCC(N(C)c2cc(NC(=O)c3ccc(F)cc3)ccn2)CC1` (centres undefined), the IC50 is 980 nM.
Regarding `O=C(CCC1CCCCC1=O)c1ccccc1` (centres undefined), the half-maximal inhibitory concentration (IC50) is 770 nM.
For `O=C(Nc1ccc(CC(=O)N2CCc3cc(Cl)c(N4CCN(C/C=C/c5ccccc5)CC4)cc32)cc1)Nc1cccc([N+](=O)[O-])c1` the value was 760 nM.
The molecule `CNCCNc1nccc(N2CCc3ncnc(Nc4ccc(OCc5cccc(F)c5)c(Cl)c4)c3C2)n1` yielded an IC50 of 200 nM.
Take `CC(C)(C)c1ccc(NC(=O)c2cccc(CN3CCN(Cc4cccc(O)c4)CC3)c2)cc1`: the IC50 is 1400 nM.
Take `CCCc1cc(Cc2cnc(N)nc2N)cc(CCC)c1OCCCCC(=O)O`: the IC50 worked out at 200 nM.
For `Cc1cc(=O)c(-c2ccc(Oc3ccc(F)cc3)cc2)c(C)[nH]1` the value was 970 nM; for `O=C(Nc1ccc(Cn2ncc(N3CCCNCC3)c(Cl)c2=O)cc1)Nc1ccc(F)cc1[N+](=O)[O-]`, 1100 nM; for `COC(=O)c1ccc2nc(-c3ccc(/C=C/C(=O)NCc4ccc(Cl)c(Cl)c4)cc3)[nH]c2c1`, 1340 nM.
`Nc1nc(N)c2c(ccc3nccc32)[nH]1` had an IC50 of 1080 nM. This IC50 and that of the molecule before are within 1.5-fold of each other.
With `CC(C)c1ccc(-c2nc3ncc(Cl)cc3[nH]2)cc1`, the half-maximal inhibitory concentration (IC50) is 860 nM.
For `O=C(CCN1CCCCC1)Nc1ccc(Nc2nccc(NCC(O)c3ccccc3)n2)cc1` (centres undefined), the IC50 worked out at 720 nM.
For `CN1CCCN(Cc2cccc(-c3cccc(NC(=O)c4cccc(Cl)c4)c3)c2)CC1`, the IC50 was determined as 890 nM.
Turning to `FC(F)(F)c1cccnc1N1CCC(Nc2nc3ccc(Cl)cc3[nH]2)CC1`, the IC50 was 650 nM.
For `COc1ccc2ncc(F)c(CCN3CC[C@H](NCc4cc5c(s4)CCCN5)[C@H](O)C3)c2n1` the value was 960 nM; for `O=C1c2ccccc2C(=O)N1CCOc1c(Br)cc(Br)cc1CNCCCNc1cc(=O)c2ccccc2[nH]1`, 840 nM.

Values taken from PubChem BioAssay AID2305 (GlaxoSmithKline (GSK), 2010).
